# From US20110189758A1, “TRANSFECTION VECTOR” (Anaeropharma Science, Inc., priority 2010, published 2011)
# Read-outs that look alike come from different tables or passages of the source.
# System: Human breast cancer cell line KPL-1 tumor
# Assay type: in vivo, nude mouse
compound,measurement,setting,value
"COc1cccc2c1C(=O)c1c(O)c3c(c(O)c1C2=O)C[C@@](O)(C(=O)CO)C[C@@H]3O[C@H]1C[C@H](N)[C@H](O)[C@H](C)O1 [adriamycine, adriamycin]","Tumor volume, Average",Day 0 (grouping),97.7 mm3
same,"Tumor volume, Average",Day 4,133.6 mm3
same,"Tumor volume, Average",Day 7,145.4 mm3
same,"Tumor volume, Average",Day 11,257.9 mm3
same,"Tumor volume, Average",Day 15,415.2 mm3
same,"Tumor volume, Average",Day 19,625.2 mm3
same,"Tumor volume, Average",Day 21,852.6 mm3
same,T/C (%) at Day 21,average tumor volume of group / Group I × 100,63.8%
